Counter-ions that a name gives are not always drawn.

The target of the assay is T1, human recombinant 6His-Nterm SHP2 full-length (Thr2-Arg593) (Homo sapiens, UniProt Q06124).
T1 construct: 6His-Nterm SHP2 full-length (Thr2-Arg593, R&D system); 6His (N); purchased R&D system
T1 sequence (Q06124 2-593): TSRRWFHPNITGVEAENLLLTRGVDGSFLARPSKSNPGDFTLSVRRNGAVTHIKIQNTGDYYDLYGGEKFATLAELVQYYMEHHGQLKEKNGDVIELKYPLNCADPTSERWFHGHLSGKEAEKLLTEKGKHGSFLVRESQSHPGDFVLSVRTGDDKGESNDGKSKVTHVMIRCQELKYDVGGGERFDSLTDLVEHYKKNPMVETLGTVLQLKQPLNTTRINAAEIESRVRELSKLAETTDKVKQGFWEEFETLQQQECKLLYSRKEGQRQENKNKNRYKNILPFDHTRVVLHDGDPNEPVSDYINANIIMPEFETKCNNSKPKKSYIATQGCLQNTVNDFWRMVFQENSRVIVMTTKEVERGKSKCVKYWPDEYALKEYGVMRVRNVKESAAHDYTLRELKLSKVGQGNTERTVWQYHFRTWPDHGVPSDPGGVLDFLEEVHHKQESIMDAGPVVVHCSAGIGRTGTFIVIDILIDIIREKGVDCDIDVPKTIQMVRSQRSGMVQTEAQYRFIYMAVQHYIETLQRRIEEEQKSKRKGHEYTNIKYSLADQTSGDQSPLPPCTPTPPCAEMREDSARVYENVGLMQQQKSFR
Description: SHP2 Phosphatase Assay (DiFMUP fluorescence). Format: biochemical. The note with it: SHP2 0.2 nM pre-incubated with 100 nM bi-phosphorylated activating peptide; compound 1000-0.05 nM, 30 min pre-incubation; DiFMUP 20 µM, 45 min, room temperature; 10-concentration dose-response. On the procedure:
Inhibition of SHP2 phosphatase activity was evaluated using human recombinant 6His-Nterm SHP2 full-length (Thr2-Arg593, R&D system), NsCs bi-phosphorylated activating peptide (NH2-LN(pY)AQLWHA(PEG8)LTI(pY)ATIRRF-Amide.acetate, Thermofischer Scientific) and DiFMUP as surrogate phosphatase substrate (Molecular Probes). All reactions were performed at room temperature in 384-well black polystyrene non-binding plate (Corning) with the assay buffer (50 mM HEPES-NaOH pH 7.2, 100 mM NaCl, 0.5 mM EDTA, 0.001% Brij35 including 0.02% BSA and 1 mM DTT added extemporaneously). SHP2 was pre-incubated at least 10 min with the activating peptide (0.2 nM and 100 nM, respectively). 10 µL of this mixture was added to the assay plate, that already contained 15 nL of the compound (1000-0.05 nM). After 30 min pre-incubation, the enzymatic reaction was initiated by the addition of 5 µL DiFMUP in assay buffer without BSA (20 µM). The reaction was stopped by the addition of 15 µL sodium pervanadate solution (100 µM) after 45 min incubation. The fluorescence signal was measured at excitation and emission wavelengths of 350 nm and 450 nm, respectively, using a Pherastar instrument (BMG-LabTech). Percentage of inhibition […] were calculated from the fluorescence signal at 450 nm of the positive and negative control using the following formula: I% = ((signal Max−signal Sample)/(signal Max−signal Min control)) × 100 [formula]
Positive control (Max): corresponds to the maximum fluorescence signal obtained in the presence of 15 nL DMSO replacing the inhibitor in the pre-incubation step.
Negative control (Min): corresponds to the minimum signal obtained in the presence of 1 µM of RMC-4550, the structure of which is shown below: [drawing 464]
The IC50 were then calculated from a dose-response curve of 10 concentrations of tested compound using the 4-parameter logistic model: I% = A + (C)/(1 + exp(−B×log(X)−M)) [formula]
The parameters A and (A+C) are the lower and upper limits, B is the slope of the curve at the inflexion point, M parameter is the logarithm of the abscissa at the inflexion point, and X is the concentration of compound.
Take `Cc1nocc1-c1c(C)nc(N2CCC3(CC2)Cc2ccccc2[C@H]3N)c2ccnn12` [Compound 21, (1S)-1'-[6-methyl-7-(3-methylisoxazol-4-yl)pyrazolo[1,5-a]pyrazin-4-yl]spiro[indane-2,4'-piperidine]-1-amine]: the IC50 (in general, the point on the concentration scale where inhibition reaches its midpoint) was found to be 58 nM.
As for `Cc1nc(N2CCC3(CC2)Cc2ncccc2[C@H]3N)c2ccnn2c1-c1ccccc1Cl` [Compound 22, (5S)-1'-[7-(2-chlorophenyl)-6-methyl-pyrazolo[1,5-a]pyrazin-4-yl]spiro[5,7-dihydrocyclopenta[b]pyridine-6,4'-piperidine]-5-amine], the figure is 11 nM.
Then `COc1cnc2c(c1)[C@@H](N)C1(CCN(c3nc(C)c(-c4ccnc(C)c4Cl)n4nccc34)CC1)C2` [Compound 23, (5S)-1'-[7-(3-chloro-2-methyl-4-pyridyl)-6-methyl-pyrazolo[1,5-a]pyrazin-4-yl]-3-methoxy-spiro[5,7-dihydrocyclopenta[b]pyridine-6,4'-piperidine]-5-amine], with 10 nM.
As for `COc1cnc2c(c1)[C@@H](N)C1(CCN(c3nc(C)c(-c4cccc(F)c4F)n4nccc34)CC1)C2` [Compound 24, (5S)-1'-[7-(2,3-difluorophenyl)-6-methyl-pyrazolo[1,5-a]pyrazin-4-yl]-3-methoxy-spiro[5,7-dihydrocyclopenta[b]pyridine-6,4'-piperidine]-5-amine], the figure is 11 nM.
With `Cc1nccc(-c2c(C)nc(N3CCC4(CC3)Cc3ccccc3[C@H]4N)c3ccnn23)c1Cl` [Compound 25, (S)-1'-(7-(3-chloro-2-methylpyridin-4-yl)-6-methylpyrazolo[1,5-a]pyrazin-4-yl)-1,3-dihydrospiro[indene-2,4'-piperidin]-1-amine hydrochloride], the concentration for half-maximal inhibition (IC50) was 6 nM.
In the case of `N[C@@H]1c2cccnc2CC12CCN(c1ncc(-c3cccc(F)c3F)n3nccc13)CC2` [Compound 26, (5S)-1'-[7-(2,3-difluorophenyl)pyrazolo[1,5-a]pyrazin-4-yl]spiro[5,7-dihydrocyclopenta[b]pyridine-6,4'-piperidine] -5-amine formate], the IC50 was 23 nM.
Turning to `Cc1nc(N2CCC3(CC2)Cc2ncccc2[C@H]3N)c2ccnn2c1-c1ccc2nccnc2c1` [Compound 27, (5S)-1'-(6-methyl-7-quinoxalin-6-yl-pyrazolo[1,5-a]pyrazin-4-yl)spiro[5,7-dihydrocyclopenta[b]pyridine-6,4'-piperidine]-5-amine hydrochloride], the 50% inhibitory concentration (IC50) stood at 16 nM.
Take `Cc1nccc(-c2c(C)nc(N3CCC4(CC3)Cc3ncc(F)cc3[C@H]4N)c3ccnn23)c1Cl` [Compound 28, (5S)-1'-[7-(3-chloro-2-methyl-4-pyridyl)-6-methyl-pyrazolo[1,5-a]pyrazin-4-yl]-3-fluoro-spiro[5,7-dihydrocyclopenta[b]pyridine-6,4'-piperidine] -5-amine]: the IC50 worked out at 15 nM.
Then `Cc1nc(N2CCC3(CC2)Cc2ncccc2[C@H]3N)c2ccnn2c1-c1ccnn1C` [Compound 29, (5S)-1'-[6-methyl-7-(2-methylpyrazol-3-yl)pyrazolo[1,5-a]pyrazin-4-yl]spiro[5,7-dihydrocyclopenta[b]pyridine-6,4'-piperidine]-5-amine hydrochloride], with 38 nM.
Then `Cc1nc(N2CCC3(CC2)Cc2ncccc2[C@H]3N)c2ccnn2c1-c1ccc2ncccc2c1F` [Compound 30, (5S)-1'-[7-(5-fluoro-6-quinolyl)-6-methyl-pyrazolo [1 ,5-a]pyrazin-4-yl]spiro[5,7-dihydrocyclopenta[b]pyridine-6,4'-piperidine] -5-amine formate], with 17 nM.
Then `COc1ccc(F)c(-c2c(C)nc(N3CCC4(CC3)Cc3ncccc3[C@H]4N)c3ccnn23)c1` [Compound 31, (5S)-1'-[7-(2-fluoro-5-methoxy-phenyl)-6-methyl-pyrazolo[1,5-a]pyrazin-4-yl]spiro[5,7-dihydrocyclopenta[b]pyridine-6,4'-piperidine]-5-amine], with 13 nM.

These data come from EP4227307A1 (Genzyme Corporation, priority 2022, dated 2023).
